Experimental data as given in paper PMC5564600 (Oncotarget, 2017).

Tests used:
Assay in all cases: biochemical
Assay type in all cases: binding
panel of 442 kinases [1] = biological target: T1, panel of 442 kinases (Homo sapiens, UniProt O15075); conditions: DCAMKL1; for remaining activity at 1 µM: read-out: % of control at 1 µM
T1 construct: purchased Ambit Biosciences (scanMAXX KINOMEscan)

panel of 442 kinases [2] = biological target: T2, panel of 442 kinases (Homo sapiens, UniProt P09769); conditions: FGR; for remaining activity at 1 µM: read-out: % of control at 1 µM
T2 construct: purchased Ambit Biosciences (scanMAXX KINOMEscan)
T2 sequence (P09769 whole entry): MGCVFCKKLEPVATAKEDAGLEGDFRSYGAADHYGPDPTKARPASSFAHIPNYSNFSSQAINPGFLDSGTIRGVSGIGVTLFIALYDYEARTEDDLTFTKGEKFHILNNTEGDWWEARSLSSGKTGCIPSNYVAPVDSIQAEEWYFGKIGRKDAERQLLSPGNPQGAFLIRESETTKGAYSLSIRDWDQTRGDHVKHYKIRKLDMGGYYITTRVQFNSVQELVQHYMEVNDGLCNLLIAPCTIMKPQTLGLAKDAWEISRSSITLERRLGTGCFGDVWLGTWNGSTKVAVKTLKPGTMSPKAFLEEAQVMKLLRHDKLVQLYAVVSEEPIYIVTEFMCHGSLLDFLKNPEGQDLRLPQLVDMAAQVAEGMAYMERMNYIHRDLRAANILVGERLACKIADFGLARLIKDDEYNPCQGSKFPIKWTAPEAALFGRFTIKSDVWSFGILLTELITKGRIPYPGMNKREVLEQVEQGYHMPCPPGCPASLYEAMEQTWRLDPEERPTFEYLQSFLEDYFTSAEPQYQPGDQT

panel of 442 kinases [3] = biological target: T3, panel of 442 kinases (Homo sapiens, UniProt P27037); conditions: ACVR2A; for remaining activity at 1 µM: read-out: % of control at 1 µM
T3 construct: purchased Ambit Biosciences (scanMAXX KINOMEscan)
T3 sequence (P27037 20-513): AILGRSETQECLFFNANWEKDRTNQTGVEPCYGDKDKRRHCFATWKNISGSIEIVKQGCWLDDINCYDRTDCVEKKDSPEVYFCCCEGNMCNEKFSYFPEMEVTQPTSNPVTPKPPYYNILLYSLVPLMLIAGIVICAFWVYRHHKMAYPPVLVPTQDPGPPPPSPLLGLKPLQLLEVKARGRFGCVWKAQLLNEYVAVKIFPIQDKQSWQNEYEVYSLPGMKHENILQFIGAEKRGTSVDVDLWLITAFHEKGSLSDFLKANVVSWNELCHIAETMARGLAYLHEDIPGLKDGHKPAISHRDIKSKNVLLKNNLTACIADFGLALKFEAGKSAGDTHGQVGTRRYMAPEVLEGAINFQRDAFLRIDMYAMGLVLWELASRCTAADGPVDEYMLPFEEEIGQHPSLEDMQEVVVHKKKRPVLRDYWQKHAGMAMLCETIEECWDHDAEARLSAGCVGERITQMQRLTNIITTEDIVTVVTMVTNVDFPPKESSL

panel of 442 kinases [4] = biological target: T4, panel of 442 kinases (Homo sapiens, UniProt P49840); conditions: kinase GSK3A; for remaining activity at 1 µM: read-out: % of control at 1 µM
T4 construct: purchased Ambit Biosciences (scanMAXX KINOMEscan)
T4 sequence (P49840 whole entry): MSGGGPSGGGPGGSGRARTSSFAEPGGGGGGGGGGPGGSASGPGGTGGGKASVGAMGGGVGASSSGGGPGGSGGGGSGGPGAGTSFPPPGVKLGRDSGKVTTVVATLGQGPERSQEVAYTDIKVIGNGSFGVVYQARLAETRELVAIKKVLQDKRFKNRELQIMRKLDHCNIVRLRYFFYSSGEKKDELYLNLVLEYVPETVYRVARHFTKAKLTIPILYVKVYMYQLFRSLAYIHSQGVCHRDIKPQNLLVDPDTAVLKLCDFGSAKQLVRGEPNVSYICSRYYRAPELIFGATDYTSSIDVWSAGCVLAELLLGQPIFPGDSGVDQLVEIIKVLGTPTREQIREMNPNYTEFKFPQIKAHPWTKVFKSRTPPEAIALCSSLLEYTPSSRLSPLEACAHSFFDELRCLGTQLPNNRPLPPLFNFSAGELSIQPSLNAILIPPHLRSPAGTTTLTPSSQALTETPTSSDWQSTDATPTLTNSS

panel of 442 kinases [5] = biological target: T5, panel of 442 kinases (Homo sapiens, UniProt P51817); conditions: kinase PRKX; for remaining activity at 1 µM: read-out: PRKX (% of control at 1 µM)
T5 construct: purchased Ambit Biosciences (scanMAXX KINOMEscan)
T5 sequence (P51817 1-358): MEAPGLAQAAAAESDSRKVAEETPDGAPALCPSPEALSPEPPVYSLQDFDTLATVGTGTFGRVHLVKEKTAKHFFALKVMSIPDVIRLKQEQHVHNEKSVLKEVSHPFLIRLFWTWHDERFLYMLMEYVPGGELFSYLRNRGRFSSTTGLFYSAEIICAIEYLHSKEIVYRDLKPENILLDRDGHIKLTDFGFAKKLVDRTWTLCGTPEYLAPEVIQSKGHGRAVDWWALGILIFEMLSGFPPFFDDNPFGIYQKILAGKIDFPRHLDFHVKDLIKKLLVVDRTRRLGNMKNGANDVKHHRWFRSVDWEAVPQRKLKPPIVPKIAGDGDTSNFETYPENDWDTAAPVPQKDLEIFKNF

panel of 442 kinases [6] = biological target: T6, panel of 442 kinases (Homo sapiens, UniProt Q02763); conditions: kinase TIE2; for remaining activity at 1 µM: read-out: TIE2 (% of control at 1 µM)
T6 construct: purchased Ambit Biosciences (scanMAXX KINOMEscan)
T6 sequence (Q02763 23-1124): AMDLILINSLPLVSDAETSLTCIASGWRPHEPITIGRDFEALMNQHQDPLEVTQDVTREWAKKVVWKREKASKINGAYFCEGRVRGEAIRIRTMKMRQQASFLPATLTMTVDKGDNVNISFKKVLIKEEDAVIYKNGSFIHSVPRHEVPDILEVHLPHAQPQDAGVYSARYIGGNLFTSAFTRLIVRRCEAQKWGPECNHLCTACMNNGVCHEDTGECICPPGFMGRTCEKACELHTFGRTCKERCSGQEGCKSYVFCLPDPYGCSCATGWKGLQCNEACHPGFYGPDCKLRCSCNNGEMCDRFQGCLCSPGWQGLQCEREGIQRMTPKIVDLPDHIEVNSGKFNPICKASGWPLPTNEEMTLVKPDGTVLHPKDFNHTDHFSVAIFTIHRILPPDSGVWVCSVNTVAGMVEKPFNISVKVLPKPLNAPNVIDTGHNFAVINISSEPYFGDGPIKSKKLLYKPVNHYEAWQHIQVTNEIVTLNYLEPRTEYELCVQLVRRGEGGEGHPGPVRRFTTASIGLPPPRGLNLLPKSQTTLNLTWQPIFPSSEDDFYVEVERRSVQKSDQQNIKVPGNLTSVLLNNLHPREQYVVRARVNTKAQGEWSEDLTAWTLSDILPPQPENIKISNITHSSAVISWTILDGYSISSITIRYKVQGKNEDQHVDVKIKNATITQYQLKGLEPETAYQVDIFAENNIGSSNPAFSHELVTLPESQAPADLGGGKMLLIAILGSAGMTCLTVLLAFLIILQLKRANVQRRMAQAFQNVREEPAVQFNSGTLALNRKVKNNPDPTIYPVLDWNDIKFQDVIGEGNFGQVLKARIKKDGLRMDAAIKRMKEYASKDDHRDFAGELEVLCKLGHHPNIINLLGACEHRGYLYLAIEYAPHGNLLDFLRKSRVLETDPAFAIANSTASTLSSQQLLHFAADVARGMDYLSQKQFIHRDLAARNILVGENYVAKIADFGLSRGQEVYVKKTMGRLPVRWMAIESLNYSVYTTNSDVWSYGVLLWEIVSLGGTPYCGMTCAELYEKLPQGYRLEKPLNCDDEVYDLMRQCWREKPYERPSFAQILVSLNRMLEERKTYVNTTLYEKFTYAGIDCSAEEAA

panel of 442 kinases [7] = biological target: T7, panel of 442 kinases (Homo sapiens, UniProt Q8NE63); conditions: kinase HIPK4; for remaining activity at 1 µM: read-out: % of control at 1 µM
T7 construct: purchased Ambit Biosciences (scanMAXX KINOMEscan)
T7 sequence (Q8NE63 1-616): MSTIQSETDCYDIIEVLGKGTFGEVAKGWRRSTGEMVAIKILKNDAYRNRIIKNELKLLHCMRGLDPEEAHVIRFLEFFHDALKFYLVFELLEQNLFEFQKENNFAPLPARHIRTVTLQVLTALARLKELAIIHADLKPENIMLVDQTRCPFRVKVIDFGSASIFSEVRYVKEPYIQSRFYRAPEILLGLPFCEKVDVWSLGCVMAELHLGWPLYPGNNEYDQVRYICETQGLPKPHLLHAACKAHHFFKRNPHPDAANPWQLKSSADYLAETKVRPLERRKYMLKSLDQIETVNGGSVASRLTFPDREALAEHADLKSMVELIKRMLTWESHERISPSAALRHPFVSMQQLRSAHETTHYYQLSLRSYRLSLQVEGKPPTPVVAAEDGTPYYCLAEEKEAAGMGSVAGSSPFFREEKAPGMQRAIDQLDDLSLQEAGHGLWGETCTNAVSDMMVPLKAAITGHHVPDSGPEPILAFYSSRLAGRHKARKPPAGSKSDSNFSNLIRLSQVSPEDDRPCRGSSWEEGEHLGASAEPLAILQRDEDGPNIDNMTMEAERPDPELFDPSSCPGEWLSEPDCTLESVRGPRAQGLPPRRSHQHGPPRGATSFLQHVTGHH

panel of 442 kinases [8] = biological target: T8, panel of 442 kinases (Homo sapiens, UniProt Q8NG66); conditions: kinase NEK11; for remaining activity at 1 µM: read-out: % of control at 1 µM
T8 construct: purchased Ambit Biosciences (scanMAXX KINOMEscan)
T8 sequence (Q8NG66 1-645): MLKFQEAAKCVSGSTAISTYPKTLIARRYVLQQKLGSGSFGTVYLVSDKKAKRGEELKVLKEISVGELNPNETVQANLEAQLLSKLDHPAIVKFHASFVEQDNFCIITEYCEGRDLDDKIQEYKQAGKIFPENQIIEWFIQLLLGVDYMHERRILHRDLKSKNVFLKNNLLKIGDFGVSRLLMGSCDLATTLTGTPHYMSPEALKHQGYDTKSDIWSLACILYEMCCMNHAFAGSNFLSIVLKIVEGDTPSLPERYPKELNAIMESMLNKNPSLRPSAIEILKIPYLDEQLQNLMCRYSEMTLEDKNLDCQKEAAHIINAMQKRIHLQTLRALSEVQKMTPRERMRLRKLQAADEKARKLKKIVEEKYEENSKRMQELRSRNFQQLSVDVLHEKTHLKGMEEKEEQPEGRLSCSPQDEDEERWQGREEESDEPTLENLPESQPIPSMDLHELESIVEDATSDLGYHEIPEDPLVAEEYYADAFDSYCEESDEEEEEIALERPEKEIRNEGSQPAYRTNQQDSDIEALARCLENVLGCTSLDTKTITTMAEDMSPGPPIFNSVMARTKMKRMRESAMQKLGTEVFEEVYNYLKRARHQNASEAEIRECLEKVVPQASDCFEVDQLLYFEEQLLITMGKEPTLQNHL

panel of 442 kinases [9] = biological target: T9, panel of 442 kinases (Homo sapiens, UniProt Q9BXA7); conditions: kinase TSSK1B; for remaining activity at 1 µM: read-out: TSSK1B (% of control at 1 µM)
T9 construct: purchased Ambit Biosciences (scanMAXX KINOMEscan)
T9 sequence (Q9BXA7 1-367): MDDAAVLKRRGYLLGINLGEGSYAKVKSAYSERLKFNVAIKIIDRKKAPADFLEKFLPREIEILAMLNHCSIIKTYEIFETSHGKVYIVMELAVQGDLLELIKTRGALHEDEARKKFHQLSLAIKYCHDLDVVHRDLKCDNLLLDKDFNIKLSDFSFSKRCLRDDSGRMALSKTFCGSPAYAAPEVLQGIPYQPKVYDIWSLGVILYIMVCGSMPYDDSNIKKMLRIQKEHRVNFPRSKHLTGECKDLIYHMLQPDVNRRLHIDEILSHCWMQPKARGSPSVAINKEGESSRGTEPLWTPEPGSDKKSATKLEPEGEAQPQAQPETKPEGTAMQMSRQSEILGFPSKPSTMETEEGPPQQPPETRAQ

[10] = 10 µM, read-out: % of control at 10 µM

T1 sequence (O15075 whole entry): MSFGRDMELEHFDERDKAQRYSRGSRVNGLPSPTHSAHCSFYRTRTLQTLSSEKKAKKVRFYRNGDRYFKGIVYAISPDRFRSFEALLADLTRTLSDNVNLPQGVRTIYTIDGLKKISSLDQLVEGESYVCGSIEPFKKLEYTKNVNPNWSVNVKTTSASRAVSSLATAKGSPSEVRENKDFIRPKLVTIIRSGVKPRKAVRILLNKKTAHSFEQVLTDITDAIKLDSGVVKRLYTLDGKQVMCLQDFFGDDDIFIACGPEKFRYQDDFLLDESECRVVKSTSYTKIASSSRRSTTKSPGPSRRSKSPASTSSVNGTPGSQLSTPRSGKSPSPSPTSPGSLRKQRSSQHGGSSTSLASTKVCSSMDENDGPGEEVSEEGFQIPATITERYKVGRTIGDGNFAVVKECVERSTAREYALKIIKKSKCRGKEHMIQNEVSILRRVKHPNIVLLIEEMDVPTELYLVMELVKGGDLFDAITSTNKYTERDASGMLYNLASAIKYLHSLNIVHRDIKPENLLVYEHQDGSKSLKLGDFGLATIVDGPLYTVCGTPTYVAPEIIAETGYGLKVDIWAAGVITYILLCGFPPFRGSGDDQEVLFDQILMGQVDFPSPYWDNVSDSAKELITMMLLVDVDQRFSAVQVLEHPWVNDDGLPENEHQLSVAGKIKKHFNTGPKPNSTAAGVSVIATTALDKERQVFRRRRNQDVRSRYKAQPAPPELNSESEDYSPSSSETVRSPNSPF

Row | SMILES | remaining activity at 1 µM (panel of 442 kinases [1]) [%] | remaining activity at 10 µM (panel of 442 kinases [1]; [10]) [%] | remaining activity at 1 µM (panel of 442 kinases [2]) [%] | remaining activity at 10 µM (panel of 442 kinases [2]; [10]) [%] | remaining activity at 1 µM (panel of 442 kinases [3]) [%] | remaining activity at 10 µM (panel of 442 kinases [3]; [10]) [%] | remaining activity at 1 µM (panel of 442 kinases [4]) [%] | remaining activity at 10 µM (panel of 442 kinases [4]; [10]) [%] | remaining activity at 1 µM (panel of 442 kinases [5]) [%] | remaining activity at 10 µM (panel of 442 kinases [5]; 10 µM, read-out: PRKX (% of control at 10 µM)) [%] | remaining activity at 1 µM (panel of 442 kinases [6]) [%] | remaining activity at 10 µM (panel of 442 kinases [6]; 10 µM, read-out: TIE2 (% of control at 10 µM)) [%] | remaining activity at 1 µM (panel of 442 kinases [7]) [%] | remaining activity at 10 µM (panel of 442 kinases [7]; [10]) [%] | remaining activity at 1 µM (panel of 442 kinases [8]) [%] | remaining activity at 10 µM (panel of 442 kinases [8]; [10]) [%] | remaining activity at 1 µM (panel of 442 kinases [9]) [%] | remaining activity at 10 µM (panel of 442 kinases [9]; 10 µM, read-out: TSSK1B (% of control at 10 µM)) [%]
1 | Nc1cc(C(F)(F)F)c(-c2cc(N3CCOCC3)nc(N3CCOCC3)n2)cn1 [Buparlisib] | 100 | 92 | 100 | 100 | 100 | 100 | 93 | 100 | 100 | 100 | 100 | 100 | 97 | 100 | 74 | 96 | 97 | 100
2 | Cn1c(=O)n(-c2ccc(C(C)(C)C#N)cc2)c2c3cc(-c4cnc5ccccc5c4)ccc3ncc21 [Dactolisib, 2-methyl-2-[4-(3-methyl-2-oxo-8-quinolin-3-yl-2,3-dihydroimidazo[4,5-c]quinolin-1-yl)-phenyl] propionitrile] | 100 | – | 81 | – | 89 | – | – | – | 77 | – | 100 | – | 87 | – | 81 | – | 98 | –
3 | COc1ncc(-c2ccc3nccc(-c4ccnnc4)c3c2)cc1NS(=O)(=O)c1ccc(F)cc1F [Omipalisib] | 92 | – | 84 | – | 100 | – | 100 | – | 100 | – | 100 | – | 98 | – | 100 | – | 100 | –
4 | FC(F)c1nc2ccccc2n1-c1nc(N2CCOCC2)nc(N2CCOCC2)n1 [ZSTK474, 2-(difluoromethyl)-1-[4,6-di(4-morpholinyl)-1,3,5-triazin-2-yl]-1H-benzimidazole] | 97 | – | 87 | – | 100 | – | 100 | – | 100 | – | 100 | – | 77 | – | 82 | – | 76 | –
